In ChEMBL document CHEMBL3886983, “Pyridinyl and pyrimidinyl sulfoxide and sulfone derivatives” (2016):

Target: Nicotinamide phosphoribosyltransferase (Homo sapiens, UniProt P43490)
Experiment: Biochemical Inhibition Assay: The NAMPT Enzymatic Reaction. The NAMPT enzymatic reactions were carried out in Buffer A (50 mM Hepes pH 7.5, 50 mM NaCl, 5 mM MgCl2, and 1 mM THP) in 96-well V-bottom plates. The compound titrations were performed in a separate dilution plate by serially diluting the compounds in DMSO to make a 100x stock. Buffer A (89 uL) containing 33 nM of NAMPT protein was added to 1 uL of 100x compound plate containing controls (e.g. DMSO or blank). The compound and enzyme mixture was incubated for 15 min at rt, then 10 uL of 10x substrate and co-factors in Buffer A were added to the test well to make a final concentration of 1 uM NAM, […] 5-Phospho-D-ribose 1-diphosphate (PRPP), and 2.5 mM Adenosine 5'-triphosphate (ATP). The reaction was allowed to proceed for 30 min at rt, then was quenched with the addition of 11 uL of a solution of formic acid and L-Cystathionine to make a final concentration of 1% formic acid and 10 uM L-Cystathionine. Background and signal strength was determined by addition (or non-addition) of a serial dilution of NMN to a pre-quenched enzyme and cofactor mix.

Chain of Nicotinamide phosphoribosyltransferase (P43490 whole entry): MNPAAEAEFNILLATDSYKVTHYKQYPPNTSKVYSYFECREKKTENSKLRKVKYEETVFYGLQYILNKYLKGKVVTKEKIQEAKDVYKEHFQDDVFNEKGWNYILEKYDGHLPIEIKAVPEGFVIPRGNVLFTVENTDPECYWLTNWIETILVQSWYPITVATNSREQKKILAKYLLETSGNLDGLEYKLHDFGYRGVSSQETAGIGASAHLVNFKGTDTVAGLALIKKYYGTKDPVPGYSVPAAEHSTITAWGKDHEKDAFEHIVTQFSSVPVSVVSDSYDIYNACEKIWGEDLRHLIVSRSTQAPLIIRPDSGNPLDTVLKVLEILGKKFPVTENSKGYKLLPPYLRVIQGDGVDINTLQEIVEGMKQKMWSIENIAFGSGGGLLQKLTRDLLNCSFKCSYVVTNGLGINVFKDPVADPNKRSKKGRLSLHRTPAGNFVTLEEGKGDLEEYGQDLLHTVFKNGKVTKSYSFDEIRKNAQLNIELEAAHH

IC50: 0.916 nM
SMILES: CN1CCN(c2ccc(S(=O)(=O)c3ccc(CNC(=O)c4cc5ccncc5o4)nc3)cn2)CC1
